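Step 1: Grow cells in 96-well plates. Step 2: Expose to compound for 48 hours at 5 concentrations. Step 3: Interpolate endpoints linearly; if unreached, use highest concentration. Here, GI50 denotes the concentration required for 50% inhibition of growth.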 Active and inactive are the calls of the source. Rule as the data show it: active = GI50 up to about 1.1 µM and inactive = higher. Where a SMILES comes first, the peptide text is derived from it. The star is where a group is joined. Boc = CC(C)(C)OC(=O)*
Legend:
Test in all cases: DTP human tumour cell line panel, 48 h
NCI/ADR-RES = test system: NCI/ADR-RES
HL-60 = test system: HL-60
SF-539 = test system: SF-539
UO-31 = test system: UO-31
KM12 = test system: KM12
MOLT-4 = test system: MOLT-4
SN12C = test system: SN12C
A549 = test system: A549
COLO 205 = test system: COLO 205
OVCAR-3 = test system: OVCAR-3
OVCAR-5 = test system: OVCAR-5
DU-145 = test system: DU-145
M14 = test system: M14
SR = test system: SR
TK-10 = test system: TK-10
MCF7 = test system: MCF7

SMILES | GI50 (NCI/ADR-RES) | GI50 (HL-60) | GI50 (SF-539) | GI50 (UO-31) | GI50 (KM12) | GI50 (MOLT-4) | GI50 (SN12C) | GI50 (A549) | GI50 (COLO 205) | GI50 (OVCAR-3) | GI50 (OVCAR-5) | GI50 (DU-145) | GI50 (M14) | GI50 (SR) | GI50 (TK-10) | GI50 (MCF7)
CN1CCN(c2ccc3nc(C4=C(O)C(=O)c5c(nc(CO)n5C)C4=O)[nH]c3n2)CC1 | > 100 µM (inactive) | > 100 µM (inactive) | 20.9 µM (inactive) | > 100 µM (inactive) | > 100 µM (inactive) | 56.2 µM (inactive) | > 100 µM (inactive) | > 100 µM (inactive) | > 100 µM (inactive) | > 100 µM (inactive) | > 100 µM (inactive) | > 100 µM (inactive) | > 100 µM (inactive) |  |  | 
COc1ccc(/C=C2\OC(=O)C(Cl)=C2c2ccc(OC)cc2)cc1 |  | > 100 µM (inactive) | > 100 µM (inactive) | > 100 µM (inactive) | > 100 µM (inactive) | > 100 µM (inactive) | > 100 µM (inactive) | > 100 µM (inactive) | > 100 µM (inactive) | > 100 µM (inactive) |  | > 100 µM (inactive) | > 100 µM (inactive) | > 100 µM (inactive) | 84.5 µM (inactive) | 
O=C(/C=C1\C[C@H]2C=Nc3ccccc3C(=O)N2C1)NCCCCNC(=O)/C=C1\C[C@H]2C=Nc3ccccc3C(=O)N2C1 | 22.3 µM (inactive) | 3.3 µM (inactive) | 14.9 µM (inactive) | 2.39 µM (inactive) | 17.5 µM (inactive) | 2.91 µM (inactive) | 5.05 µM (inactive) | 20.7 µM (inactive) | 4.21 µM (inactive) | 7.82 µM (inactive) | 19.2 µM (inactive) | 15.2 µM (inactive) | 6.12 µM (inactive) |  | 10.4 µM (inactive) | 12.4 µM (inactive)
CC(=O)OCC1OC(O[C@@H]2c3c(O)c4c(c(O)c3C3=C(NN(c5ccc([N+](=O)[O-])cc5[N+](=O)[O-])[Se]3=O)[C@@]2(C)O)C(=O)c2ccccc2C4=O)C(OC(C)=O)C(OC(C)=O)C1OC(C)=O (stereo partly specified) | 0.336 µM (active) |  |  | 0.239 µM (active) | 0.338 µM (active) | 0.0345 µM (active) | 0.157 µM (active) | 0.314 µM (active) | 0.175 µM (active) | 0.158 µM (active) | 0.51 µM (active) | 0.365 µM (active) | 0.254 µM (active) | 0.179 µM (active) | 0.497 µM (active) | 0.207 µM (active)
CN1CCc2c(sc3ncn(C)c(=N)c23)C1 | > 100 µM (inactive) | > 100 µM (inactive) | > 100 µM (inactive) |  | > 100 µM (inactive) | > 100 µM (inactive) | > 100 µM (inactive) | > 100 µM (inactive) | > 100 µM (inactive) | > 100 µM (inactive) | > 100 µM (inactive) | > 100 µM (inactive) | > 100 µM (inactive) |  | > 100 µM (inactive) | > 100 µM (inactive)
CCCCCCNC(=O)c1cc(NCc2cc(OC)ccc2OC)ccc1O | 16.9 µM (inactive) | 14.4 µM (inactive) | 18.5 µM (inactive) | 17.7 µM (inactive) | 24.8 µM (inactive) | 25.7 µM (inactive) | 20.6 µM (inactive) | 29.6 µM (inactive) | 19 µM (inactive) | 0.865 µM (active) | 51.4 µM (inactive) | 24.2 µM (inactive) | 18.7 µM (inactive) |  | 42.6 µM (inactive) | 22.1 µM (inactive)
O=C1OC(OCC#CCOC2OC(=O)C(Cl)=C2Cl)C(Cl)=C1Cl (stereo unspecified) | 19.5 µM (inactive) |  | 16.5 µM (inactive) | 11.6 µM (inactive) | 18.9 µM (inactive) | 2.43 µM (inactive) | 17.3 µM (inactive) | 18.4 µM (inactive) | 7.41 µM (inactive) | 13.9 µM (inactive) | 16.6 µM (inactive) | 18.6 µM (inactive) | 11.2 µM (inactive) | 2 µM (inactive) | 9.16 µM (inactive) | 6.17 µM (inactive)
Cc1nn(C(=O)Cc2ccccc2)c2c1C(c1ccccc1[N+](=O)[O-])SC(=N)N2 (stereo unspecified) |  | > 100 µM (inactive) | > 100 µM (inactive) | > 100 µM (inactive) | > 100 µM (inactive) | > 100 µM (inactive) | > 100 µM (inactive) | > 100 µM (inactive) | > 100 µM (inactive) |  |  | > 100 µM (inactive) | > 100 µM (inactive) | > 100 µM (inactive) | > 100 µM (inactive) | > 100 µM (inactive)
CCOC(=O)CN1C(=O)c2ccc(NC(=O)C(=O)O)cc2S1(=O)=O | > 100 µM (inactive) | > 100 µM (inactive) |  | > 100 µM (inactive) | > 100 µM (inactive) | > 100 µM (inactive) | > 100 µM (inactive) | > 100 µM (inactive) | > 100 µM (inactive) |  | > 100 µM (inactive) | > 100 µM (inactive) | > 100 µM (inactive) | > 100 µM (inactive) | > 100 µM (inactive) | > 100 µM (inactive)
O=C(/C=C1\N=C(c2ccccc2)N(c2ccc3c(c2)Sc2cc(N4C(=O)/C(=C/C(=O)/C=C/c5ccccc5)N=C4c4ccccc4)ccc2N3)C1=O)/C=C/c1ccccc1 | 41.6 µM (inactive) | 40.6 µM (inactive) |  | 81.1 µM (inactive) | > 100 µM (inactive) | 41.4 µM (inactive) | 36.8 µM (inactive) | > 100 µM (inactive) | > 100 µM (inactive) | 24.9 µM (inactive) | 22.4 µM (inactive) | > 100 µM (inactive) | 64 µM (inactive) |  | 45.1 µM (inactive) | 23.9 µM (inactive)
COC(=O)C(Cc1c[nH]c2ccccc12)NC(=O)C(Cc1c[nH]c2ccccc12)NC(=O)C(Cc1c[nH]c2ccccc12)NC(=O)C(Cc1c[nH]c2ccccc12)NC(=O)C(Cc1c[nH]c2ccccc12)NC(=O)C(Cc1c[nH]c2ccccc12)NC(=O)C(Cc1c[nH]c2ccccc12)NC(=O)C(Cc1c[nH]c2ccccc12)NC(=O)OC(C)(C)C (stereo unspecified) (Boc-WWWWWWWW-OMe; configuration not given here) |  | 24.8 µM (inactive) |  | 53.7 µM (inactive) |  | 44.5 µM (inactive) | 72.8 µM (inactive) | 86.5 µM (inactive) |  | 83.6 µM (inactive) | 37.8 µM (inactive) | 35.5 µM (inactive) | 12.6 µM (inactive) | 59.7 µM (inactive) | 34 µM (inactive) | > 100 µM (inactive)
O=C1C(NCCF)=C(Cl)C(=O)c2ncccc21 |  | 0.413 µM (active) | 1 µM (active) |  | 1.54 µM (inactive) | 1.22 µM (inactive) | 1.02 µM (active) | 1.73 µM (inactive) |  | 2.48 µM (inactive) | 2.04 µM (inactive) | 1.11 µM (active) | 0.869 µM (active) | 2.36 µM (inactive) | 1.81 µM (inactive) | 0.716 µM (active)
COc1ccc(Nc2nc3cc(C(F)(F)F)ccc3nc2C(=O)O)cc1 | 23.1 µM (inactive) | 19.9 µM (inactive) |  | 13.6 µM (inactive) | 24 µM (inactive) | 7.87 µM (inactive) | 27 µM (inactive) |  | 21.3 µM (inactive) | 12.6 µM (inactive) | 24.2 µM (inactive) | 20.4 µM (inactive) |  | 11.1 µM (inactive) | 34.4 µM (inactive) | 20.9 µM (inactive)
O=S(=O)(NC(c1ccccc1)(c1cc2ccccc2[nH]1)c1cc2ccccc2n1S(=O)(=O)c1ccccc1)c1ccccc1 (stereo unspecified) | > 100 µM (inactive) | > 100 µM (inactive) |  | > 100 µM (inactive) | > 100 µM (inactive) | > 100 µM (inactive) |  | 48.3 µM (inactive) | > 100 µM (inactive) | 91.8 µM (inactive) | > 100 µM (inactive) | > 100 µM (inactive) | 62.2 µM (inactive) | > 100 µM (inactive) | > 100 µM (inactive) | 
CCOC(=O)c1c(NC(=O)c2ccccc2)c(C#N)c2n1CCCCC2 | > 100 µM (inactive) | > 100 µM (inactive) |  | > 100 µM (inactive) | > 100 µM (inactive) | > 100 µM (inactive) | > 100 µM (inactive) | > 100 µM (inactive) | > 100 µM (inactive) |  | > 100 µM (inactive) | > 100 µM (inactive) | > 100 µM (inactive) | > 100 µM (inactive) | > 100 µM (inactive) | > 100 µM (inactive)
CCCSC1=N/C(=C\c2ccco2)C(=O)N1 | > 100 µM (inactive) |  | > 100 µM (inactive) | > 100 µM (inactive) | > 100 µM (inactive) | > 100 µM (inactive) | > 100 µM (inactive) | > 100 µM (inactive) | > 100 µM (inactive) | > 100 µM (inactive) | > 100 µM (inactive) | > 100 µM (inactive) | > 100 µM (inactive) |  | > 100 µM (inactive) | 36 µM (inactive)
C=CCOCn1ccc(N)nc1=O |  | > 100 µM (inactive) | > 100 µM (inactive) | > 100 µM (inactive) | > 100 µM (inactive) | > 100 µM (inactive) | > 100 µM (inactive) | > 100 µM (inactive) | > 100 µM (inactive) |  |  | > 100 µM (inactive) | > 100 µM (inactive) | > 100 µM (inactive) | > 100 µM (inactive) | > 100 µM (inactive)
Cc1ccc(-c2nc(Cc3n[nH]c(-c4ccc(C)cc4)n3)n[nH]2)cc1 | 29.6 µM (inactive) |  | > 100 µM (inactive) | > 100 µM (inactive) | > 100 µM (inactive) | > 100 µM (inactive) | > 100 µM (inactive) | > 100 µM (inactive) | > 100 µM (inactive) | > 100 µM (inactive) | > 100 µM (inactive) | > 100 µM (inactive) | > 100 µM (inactive) |  | > 100 µM (inactive) | > 100 µM (inactive)

— ChEMBL document CHEMBL1201862, “PubChem BioAssay data set” (2004)
